The record followed here is PubChem BioAssay (NCI).

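Step 1: Grow cells in 96-well plates. Step 2: Expose to compound for 48 hours at 5 concentrations. Step 3: Interpolate endpoints linearly; if unreached, use highest concentration. At the GI50, growth is halved. TGI denotes the concentration required for complete inhibition of growth.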

Among the test systems are CAKI-1 renal; K-562 leukemia; CCRF-CEM leukemia; MALME-3M melanoma; SF-295 CNS; ACHN renal; UO-31 renal; HOP-92 NSCLC; DU-145 prostate; SK-MEL-5 melanoma.
What all share (experiment): NCI tumour cell line growth inhibition, 48 h

Regarding `COC(OC)[C@@H]1OC[C@@H](O)[C@@H]1n1cnc2c(N)ncnc21`, the TGI in the experiment on CAKI-1 renal, with K-562 leukemia, in the experiment with CCRF-CEM leukemia, in the experiment on MALME-3M melanoma, with SF-295 CNS and in the experiment on ACHN renal was above 100 µM each time. Moreover, the TGI in the experiment on UO-31 renal, with HOP-92 NSCLC, in the experiment on DU-145 prostate and in the experiment on SK-MEL-5 melanoma was above 100 µM each time.
Take `COc1cc2nc(-c3cccs3)[nH]c(=O)c2cc1OC`: the TGI with CAKI-1 renal, in the experiment on K-562 leukemia, in the experiment with CCRF-CEM leukemia, in the experiment on MALME-3M melanoma, in the experiment on SF-295 CNS and in the experiment on ACHN renal was above 100 µM each time. The TGI with UO-31 renal, in the experiment on HOP-92 NSCLC, in the experiment with DU-145 prostate and in the experiment with SK-MEL-5 melanoma was above 100 µM each time.
For the compound `CCOC(=O)Oc1ccc2c(c1)c(=O)c1c(NCCN(CC)CC)ccc3nnn2c31`, the TGI in the experiment with CAKI-1 renal is 2.63 µM; in the experiment with K-562 leukemia, above 36.3 µM; with CCRF-CEM leukemia, 1.54 µM; in the experiment on MALME-3M melanoma it was 22 µM; in the experiment on SF-295 CNS, 19.5 µM; with ACHN renal, 11.6 µM. The TGI worked out at 1.24 µM with UO-31 renal, 21.4 µM in the experiment with HOP-92 NSCLC, 8.29 µM in the experiment on DU-145 prostate and 16.1 µM in the experiment on SK-MEL-5 melanoma.
As for `C[Si](C)(C)C1=C([Si](C)(C)C)C(Cl)(Cl)C1=O`, the TGI in the experiment on CAKI-1 renal worked out at 7.14 µM; in the experiment on K-562 leukemia, 2.88 µM; in the experiment with CCRF-CEM leukemia, 1.42 µM; in the experiment on MALME-3M melanoma it was 4.22 µM; in the experiment with SF-295 CNS it was 22.3 µM; in the experiment on ACHN renal, 4.9 µM. The TGI in the experiment on UO-31 renal came to 8.45 µM; with HOP-92 NSCLC, 5.55 µM; with DU-145 prostate, 23.3 µM; in the experiment on SK-MEL-5 melanoma, 5.89 µM.
`CCN(CC)c1ccc(/C=C/C=C2C(=O)NC(=S)NC2=O)cc1`: the TGI in the experiment on CAKI-1 renal was above 100 µM; in the experiment on K-562 leukemia, above 75.1 µM; with CCRF-CEM leukemia it was above 100 µM; in the experiment with MALME-3M melanoma it was above 100 µM; in the experiment on SF-295 CNS it was above 100 µM; in the experiment with ACHN renal it was above 100 µM. The TGI in the experiment with UO-31 renal, with HOP-92 NSCLC, in the experiment with DU-145 prostate and in the experiment with SK-MEL-5 melanoma was above 100 µM in each case.
On to `O=C(Nc1ccccc1)c1cc(S(=O)(=O)N2CCNNC2=O)c(S)cc1Cl`, for which the TGI with CAKI-1 renal, with K-562 leukemia, in the experiment on CCRF-CEM leukemia, in the experiment on MALME-3M melanoma, in the experiment on SF-295 CNS and in the experiment with ACHN renal was above 100 µM throughout. The TGI with UO-31 renal, in the experiment with HOP-92 NSCLC, in the experiment on DU-145 prostate and with SK-MEL-5 melanoma was above 100 µM throughout.
For the compound `CC1(C)CC(=O)C2=C(C1)OC1=C(CC(C)(C)CC1=O)C2c1ccccc1[N+](=O)[O-]` (configuration not stated), the TGI with CAKI-1 renal, with K-562 leukemia, in the experiment with CCRF-CEM leukemia, in the experiment with MALME-3M melanoma, with SF-295 CNS and in the experiment on ACHN renal was above 100 µM each time. The TGI in the experiment with UO-31 renal is 3.69 µM; in the experiment on HOP-92 NSCLC it was above 100 µM; in the experiment on DU-145 prostate, above 100 µM; in the experiment on SK-MEL-5 melanoma, above 100 µM.
As for `c1cnc(N2CCN(Cc3c[nH]c4ccccc34)CC2)nc1`, the TGI with CAKI-1 renal, in the experiment with K-562 leukemia, with CCRF-CEM leukemia, in the experiment on MALME-3M melanoma, with SF-295 CNS and in the experiment on ACHN renal was above 100 µM each time. Also, the TGI with UO-31 renal was above 100 µM; in the experiment on HOP-92 NSCLC, above 100 µM; in the experiment on DU-145 prostate, 94.2 µM; with SK-MEL-5 melanoma, above 100 µM.
Regarding `CCOc1cc(NC(C)=O)ccc1C(=O)NN1C(=O)CSC1c1ccccc1` (configuration not stated), the TGI in the experiment with CAKI-1 renal, with K-562 leukemia, in the experiment with CCRF-CEM leukemia, in the experiment with MALME-3M melanoma, with SF-295 CNS and with ACHN renal was above 100 µM each time. Further, the TGI in the experiment on UO-31 renal, in the experiment with HOP-92 NSCLC, in the experiment with DU-145 prostate and in the experiment with SK-MEL-5 melanoma was above 100 µM throughout.
For `CN(C)c1cccc(NC2=NCCO2)c1`, the TGI in the experiment on CAKI-1 renal, in the experiment on K-562 leukemia, in the experiment with CCRF-CEM leukemia, in the experiment with MALME-3M melanoma, in the experiment with SF-295 CNS and in the experiment with ACHN renal was above 100 µM in each case. Further, the TGI with UO-31 renal, with HOP-92 NSCLC, in the experiment with DU-145 prostate and in the experiment on SK-MEL-5 melanoma was above 100 µM in each case.
On to `CCN(CC)c1ccc2cc(C(=O)Nc3ccccn3)c(=N)oc2c1`, for which the TGI in the experiment with CAKI-1 renal, with K-562 leukemia, in the experiment with CCRF-CEM leukemia, with MALME-3M melanoma, in the experiment with ACHN renal and in the experiment with HOP-92 NSCLC was above 100 µM throughout. In addition, the TGI in the experiment on DU-145 prostate and with SK-MEL-5 melanoma was above 100 µM in each case.
For the compound `O=c1cnn(CCOCP(=O)(O)O)c(=O)[nH]1`, the TGI in the experiment on CAKI-1 renal, in the experiment with K-562 leukemia, in the experiment on CCRF-CEM leukemia, in the experiment on MALME-3M melanoma, in the experiment with ACHN renal and with UO-31 renal was above 100 µM throughout. In addition, the TGI in the experiment on HOP-92 NSCLC, in the experiment with DU-145 prostate and in the experiment on SK-MEL-5 melanoma was above 100 µM throughout.
`Fc1cccc(F)c1C1SCc2nc3ccc(Cl)cc3n21` (configuration not stated): the TGI with CAKI-1 renal, in the experiment with K-562 leukemia, in the experiment on CCRF-CEM leukemia, with MALME-3M melanoma, with SF-295 CNS and with ACHN renal was above 100 µM in each case. Moreover, the TGI in the experiment with UO-31 renal, with HOP-92 NSCLC, in the experiment on DU-145 prostate and in the experiment on SK-MEL-5 melanoma was above 100 µM in each case.
As to `Cc1ccc2c(c1)C(=O)C(C1OC(=O)c3ccccc31)C2` (configuration not stated), the TGI in the experiment with CAKI-1 renal, with K-562 leukemia, with CCRF-CEM leukemia, with MALME-3M melanoma, in the experiment on SF-295 CNS and with ACHN renal was above 100 µM each time. The TGI with UO-31 renal, in the experiment on HOP-92 NSCLC, in the experiment on DU-145 prostate and with SK-MEL-5 melanoma was above 100 µM in each case.
Regarding `Cn1c(N/N=C/c2ccccc2)nc(-c2ccc([N+](=O)[O-])cc2)c(C#N)c1=O`, the TGI in the experiment on CAKI-1 renal, with K-562 leukemia, in the experiment with CCRF-CEM leukemia, in the experiment with MALME-3M melanoma, with SF-295 CNS and in the experiment on ACHN renal was above 100 µM each time. Also, the TGI was above 100 µM in the experiment on UO-31 renal, 80.6 µM with HOP-92 NSCLC, above 100 µM with DU-145 prostate and above 100 µM in the experiment with SK-MEL-5 melanoma.
Regarding `CC(=O)N(O)c1ccc(-c2nc3ccccc3s2)cc1`, the TGI in the experiment on CAKI-1 renal is above 100 µM; in the experiment on K-562 leukemia it was above 100 µM; in the experiment on CCRF-CEM leukemia, above 100 µM; in the experiment with MALME-3M melanoma it was 88.9 µM; with SF-295 CNS, above 100 µM; in the experiment with ACHN renal, above 100 µM. Besides, the TGI with UO-31 renal, in the experiment with HOP-92 NSCLC, in the experiment on DU-145 prostate and in the experiment with SK-MEL-5 melanoma was above 100 µM each time.
Turning to `S=C(Nc1ccc2cn[nH]c2c1)Nc1ccc2cn[nH]c2c1`, the TGI in the experiment with CAKI-1 renal, in the experiment with K-562 leukemia, in the experiment on MALME-3M melanoma, in the experiment with SF-295 CNS, with ACHN renal and in the experiment on UO-31 renal was above 100 µM throughout. Moreover, the TGI with HOP-92 NSCLC, in the experiment with DU-145 prostate and in the experiment on SK-MEL-5 melanoma was above 100 µM each time.
Consider `CSC1NC(c2ccc(Cl)cc2)=C(C#N)C(=O)N1C1OCC(OC(C)=O)C(OC(C)=O)C1OC(C)=O` (configuration not stated), for which the TGI in the experiment on CAKI-1 renal, with K-562 leukemia, in the experiment on MALME-3M melanoma, in the experiment with SF-295 CNS, in the experiment on ACHN renal and in the experiment with UO-31 renal was above 100 µM throughout. Besides, the TGI in the experiment with HOP-92 NSCLC, in the experiment with DU-145 prostate and in the experiment on SK-MEL-5 melanoma was above 100 µM in each case.
As for `COc1ccc2c(OCc3nnc4ccc(-c5ccccc5)nn34)ccnc2c1`, the GI50 in the experiment with CAKI-1 renal is above 100 µM; in the experiment on K-562 leukemia it was above 100 µM; in the experiment on CCRF-CEM leukemia, above 58.1 µM; in the experiment with MALME-3M melanoma, above 100 µM; with HOP-92 NSCLC, above 100 µM; with DU-145 prostate it was above 100 µM. Further, the GI50 in the experiment on SK-MEL-5 melanoma is above 100 µM. Moreover, the TGI in the experiment on CAKI-1 renal, in the experiment with K-562 leukemia, in the experiment with CCRF-CEM leukemia, in the experiment on MALME-3M melanoma, in the experiment with HOP-92 NSCLC and with DU-145 prostate was above 100 µM in each case. The compound also gave a TGI in the experiment with SK-MEL-5 melanoma above 100 µM.
As for `O=C1c2cn[nH]c2C(c2ccccc2)N1c1ccccc1` (configuration not stated), the TGI with CAKI-1 renal, in the experiment with CCRF-CEM leukemia, in the experiment with MALME-3M melanoma, in the experiment with SF-295 CNS, with ACHN renal and with UO-31 renal was above 10 µM in each case. Besides, the TGI in the experiment with HOP-92 NSCLC, in the experiment on DU-145 prostate and with SK-MEL-5 melanoma was above 10 µM throughout.
Turning to `CC(=O)N1CCn2c1nc1cc(Cl)ccc12`, the TGI with CAKI-1 renal, in the experiment with K-562 leukemia, with CCRF-CEM leukemia, with MALME-3M melanoma, with SF-295 CNS and in the experiment on ACHN renal was above 100 µM each time. The results for the TGI in the experiment with HOP-92 NSCLC, in the experiment with DU-145 prostate and in the experiment on SK-MEL-5 melanoma were 81.4 µM, above 100 µM and above 100 µM, respectively.
